The text below walks through data of patent US9777005B2 (Takeda Pharmaceutical Company Limited, priority 2012, dated 2017).

The target of the assay is T1, human M1 receptor (hCHRM1) (Homo sapiens, UniProt P11229).
T1 construct: expressed in transfected cells; host or cells: CHO-K1
T1 sequence (P11229 1-460): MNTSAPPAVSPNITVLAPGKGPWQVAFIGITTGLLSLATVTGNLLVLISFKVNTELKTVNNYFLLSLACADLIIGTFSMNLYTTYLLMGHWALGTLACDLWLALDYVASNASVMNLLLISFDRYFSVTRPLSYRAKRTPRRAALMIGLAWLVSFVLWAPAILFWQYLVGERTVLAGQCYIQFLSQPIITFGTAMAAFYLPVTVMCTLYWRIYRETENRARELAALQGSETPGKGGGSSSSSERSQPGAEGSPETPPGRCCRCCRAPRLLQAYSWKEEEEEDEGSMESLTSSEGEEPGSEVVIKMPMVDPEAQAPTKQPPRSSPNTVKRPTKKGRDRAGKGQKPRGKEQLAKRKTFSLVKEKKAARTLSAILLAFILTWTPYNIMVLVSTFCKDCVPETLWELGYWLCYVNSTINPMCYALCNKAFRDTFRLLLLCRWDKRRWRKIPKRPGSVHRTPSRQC
Description: Measurement of M1 receptor positive allosteric modulator (M1PAM) activity, calcium fluorescence (FLIPRtetra) in CHO-K1 cells in the presence of acetylcholine at EC20. It counts as cell-based. To be noted: in the presence of acetylcholine at EC20 (final 0.6 nM), CHO-K1 cells expressing hCHRM1; for EC50: inflection point of M1PAM activity, read-out: IP value; for activity (%) at 10 μM: test compound 10 μM. How it is done:
Measurement of M1 Receptor Positive Allosteric Modulator (M1PAM) Activity
The activity of a test compound in the presence of acetylcholine at EC20 concentration (final concentration 0.6 nM), which affords an action corresponding to 20% of the maximum activity, was measured as PAM activity. The method is as follows. CHO-K1 cells forcibly expressing a human M1 receptor (hCHRM1) were plated on a 384-well black clear bottom plate (BD Falcon) at 5,000 cells/well, and cultured in an incubator at 37° C., 5% CO2 for 1 day. The medium in the cell plate was removed, and assay buffer A (Recording medium (DOJINDO LABORATORIES), 0.1% BSA (Wako Pure Chemical Industries, Ltd.), 2.5 μg/mL Fluo-4 AM (DOJINDO LABORATORIES), 0.08% Pluronic F127 (DOJINDO LABORATORIES), 1.25 mM probenecid (DOJINDO LABORATORIES)) containing a calcium indicator was added at 30 μL/well. The cells were left standing in the incubator at 37° C., 5% CO2 for 30 min, and further left standing at room temperature for 30 min. A test compound prepared by diluting with assay buffer B (HBSS (Invitrogen), 20 mM HEPES (Invitrogen), 0.1% BSA) containing 2.4 nM acetylcholine was added at 10 μL/well, and the fluorescence was measured by FLIPRtetra (Molecular Devices) for 1 min every 1 second. With the definition that the amount of change in the fluorescence on addition of acetylcholine (final concentration 1 μM) is 100% and that on addition of DMSO instead of a test compound is 0%, the activity (%) of the test compound and the inflection point in the concentration-dependent curve of the test compound were calculated as IP values.

As for `O=C1c2c(cccc2O[C@H]2CCCC[C@@H]2O)CN1Cc1cccc(Br)c1` (relative stereo) [Example 48, 2-(3-bromobenzyl)-7-((trans-2-hydroxycyclohexyl)oxy)isoindolin-1-one], the EC50 was 360 nM and the “activity (%) at 10 μM” value is recorded as 100%.
In the case of `O=C1c2c(cccc2O[C@H]2CCC[C@@H]2O)CN1Cc1ccc(-n2cccn2)cc1` (relative stereo) [Example 54, 2-(4-(1H-pyrazol-1-yl)benzyl)-7-((trans-2-hydroxycyclopentyl)oxy)isoindolin-1-one], the EC50 turned out to be 160 nM and the “activity (%) at 10 μM” value was 106%.
In the case of `Cc1cc(-c2ccc(CN3Cc4ccnc(O[C@H]5CCC[C@@H]5O)c4C3=O)cc2)ccn1` (relative stereo) [Example 76, 4-((trans-2-hydroxycyclopentyl)oxy)-2-(4-(2-methylpyridin-4-yl)benzyl)-1,2-dihydro-3H-pyrrolo[3,4-c]pyridin-3-one], the EC50 was determined as 7.2 nM and the “activity (%) at 10 μM” value is recorded as 108%.
As for `O=C1c2c(ccnc2O[C@H]2CCC[C@@H]2O)CN1Cc1ccc(-n2cccn2)cc1` (relative stereo) [Example 77, 4-((trans-2-hydroxycyclopentyl)oxy)-2-(4-(1H-pyrazol-1-yl)benzyl)-1,2-dihydro-3H-pyrrolo[3,4-c]pyridin-3-one], the EC50 is 39 nM and the “activity (%) at 10 μM” value was 103%.
Turning to `O=C1c2c(O[C@@H]3CCCC[C@H]3O)ccc(F)c2CN1Cc1ccc(-n2cccn2)cc1` (relative stereo) [Example 223, 4-fluoro-7-((trans-2-hydroxycyclohexyl)oxy)-2-(4-(1H-pyrazol-1-yl)benzyl)isoindolin-1-one], the EC50 came out at 19 nM and the “activity (%) at 10 μM” value is 103%.
On to `Cc1cc(-c2ccc(CN3Cc4cccc(O[C@H]5CCC[C@@H]5O)c4C3=O)cc2)ccn1` (relative stereo) [Example 224, 7-((trans-2-hydroxycyclopentyl)oxy)-2-(4-(2-methylpyridin-4-yl)benzyl)isoindolin-1-one], for which the EC50 worked out at 38 nM and the “activity (%) at 10 μM” value turned out to be 107%.
As for `Cc1nn(C)cc1-c1ccc(CN2Cc3cccc(O[C@H]4CCC[C@@H]4O)c3C2=O)cc1` (relative stereo) [Example 226, 2-(4-(1,3-dimethyl-1H-pyrazol-4-yl)benzyl)-7-((trans-2-hydroxycyclopentyl)oxy)isoindolin-1-one], the EC50 is 30 nM and the “activity (%) at 10 μM” value stood at 98%.
As to `Cc1nn(C)cc1-c1ccc(CN2Cc3ccnc(O[C@H]4CCC[C@@H]4O)c3C2=O)cc1` (relative stereo) [Example 227, 2-(4-(1,3-dimethyl-1H-pyrazol-4-yl)benzyl)-4-((trans-2-hydroxycyclopentyl)oxy)-1,2-dihydro-3H-pyrrolo[3,4-c]pyridin-3-one], the EC50 is 10 nM and the “activity (%) at 10 μM” value worked out at 99%.
Turning to `O=C1c2c(ccc(F)c2O[C@H]2CCCC[C@@H]2O)CN1Cc1ccc(-n2cccn2)cc1` (relative stereo) [Example 228, 6-fluoro-7-((trans-2-hydroxycyclohexyl)oxy)-2-(4-(1H-pyrazol-1-yl)benzyl)isoindolin-1-one], the EC50 was determined as 94 nM and the “activity (%) at 10 μM” value is 118%.
`Cn1cc(-c2ccc(CN3Cc4cccc(O[C@H]5CCC[C@@H]5O)c4C3=O)cc2)nn1` (relative stereo) [Example 235, 7-((trans-2-hydroxycyclopentyl)oxy)-2-(4-(1-methyl-1H-1,2,3-triazol-4-yl)benzyl)isoindolin-1-one]: the EC50 amounted to 14 nM and the “activity (%) at 10 μM” value is 105%.
With `Cn1ccc(-c2ccc(CN3Cc4ccnc(O[C@H]5CCC[C@@H]5O)c4C3=O)c(F)c2)n1` (relative stereo) [Example 236, 2-(2-fluoro-4-(1-methyl-1H-pyrazol-3-yl)benzyl)-4-((trans-2-hydroxycyclopentyl)oxy)-1,2-dihydro-3H-pyrrolo[3,4-c]pyridin-3-one], the EC50 was found to be 10 nM and the “activity (%) at 10 μM” value was determined as 109%.
On to `Cn1ccc(-c2ccc(CN3Cc4ccnc(O[C@H]5CCC[C@@H]5O)c4C3=O)cc2)n1` (relative stereo) [Example 237, 4-((trans-2-hydroxycyclopentyl)oxy)-2-(4-(1-methyl-1H-pyrazol-3-yl)benzyl)-1,2-dihydro-3H-pyrrolo[3,4-c]pyridin-3-one], for which the EC50 turned out to be 23 nM and the “activity (%) at 10 μM” value was found to be 108%.
On to `O=C1c2c(cc(F)cc2O[C@H]2CCCC[C@@H]2O)CN1Cc1ccc(-n2cccn2)cc1` (relative stereo) [Example 244, 5-fluoro-7-((trans-2-hydroxycyclohexyl)oxy)-2-(4-(1H-pyrazol-1-yl)benzyl)isoindolin-1-one], for which the EC50 came out at 16 nM and the “activity (%) at 10 μM” value is given as 104%.
Consider `Cc1nn(C)cc1-c1ccc(CN2Cc3ccnc(O[C@H]4CCCC[C@@H]4O)c3C2=O)cc1` (relative stereo) [Example 267, 2-(4-(1,3-dimethyl-1H-pyrazol-4-yl)benzyl)-4-((trans-2-hydroxycyclohexyl)oxy)-1,2-dihydro-3H-pyrrolo[3,4-c]pyridin-3-one], for which the EC50 was found to be 2.1 nM and the “activity (%) at 10 μM” value was 94%.
As for `Cn1ccc(-c2cc(F)c(CN3Cc4ccnc(O[C@H]5CCC[C@@H]5O)c4C3=O)c(F)c2)n1` (relative stereo) [Example 328, 2-(2,6-difluoro-4-(1-methyl-1H-pyrazol-3-yl)benzyl)-4-((trans-2-hydroxycyclopentyl)oxy)-1,2-dihydro-3H-pyrrolo[3,4-c]pyridin-3-one], the EC50 was 6.4 nM and the “activity (%) at 10 μM” value is reported as 97%.
Consider `O=C1c2c(cccc2O[C@H]2CCCC[C@@H]2O)CN1Cc1ccc(-c2ccnnc2)cc1` (relative stereo) [Example 352, 7-((trans-2-hydroxycyclohexyl)oxy)-2-(4-(pyridazin-4-yl)benzyl)isoindolin-1-one], for which the EC50 worked out at 4.4 nM and the “activity (%) at 10 μM” value is given as 94%.
Regarding `Cc1cc(-c2ccc(CN3Cc4cccc(O[C@H]5CCCC[C@@H]5O)c4C3=O)cc2)cnn1` (relative stereo) [Example 355, 7-((trans-2-hydroxycyclohexyl)oxy)-2-(4-(6-methylpyridazin-4-yl)benzyl)isoindolin-1-one], the EC50 came out at 4.3 nM and the “activity (%) at 10 μM” value is 95%.
On the same counts, the results for `O=C1c2c(ccnc2O[C@H]2CCCC[C@@H]2O)CN1Cc1cccs1` (relative stereo) [Example 399, 4-((trans-2-hydroxycyclohexyl)oxy)-2-(2-thienylmethyl)-1,2-dihydro-3H-pyrrolo[3,4-c]pyridin-3-one] are 97 nM and 94%.
Take `O=C1c2c(ccnc2O[C@H]2CCCC[C@@H]2O)CN1Cc1ccc(Br)s1` (relative stereo) [Example 400, 2-((5-bromo-2-thienyl)methyl)-4-((trans-2-hydroxycyclohexyl)oxy)-1,2-dihydro-3H-pyrrolo[3,4-c]pyridin-3-one]: the EC50 turned out to be 56 nM and the “activity (%) at 10 μM” value came out at 88%.
For the compound `O=C1c2c(ccnc2O[C@H]2CCCC[C@@H]2O)CN1Cc1ccc(Cl)s1` (relative stereo) [Example 401, 2-((5-chloro-2-thienyl)methyl)-4-((trans-2-hydroxycyclohexyl)oxy)-1,2-dihydro-3H-pyrrolo[3,4-c]pyridin-3-one], the EC50 was 48 nM and the “activity (%) at 10 μM” value was determined as 92%.
